For one test, the system named is LoVo. In words: Cytotoxicity against human LoVo cells. The format is functional, cell-based.
Another test concerns KB. The test is described as follows: Cytotoxicity against human KB cells. The format is functional, cell-based.

The structures appear in SMILES notation. Values after ≈ are worked out from the molar mass of the structure shown.

This is an account of results in ChEMBL document CHEMBL1159303, “Isolation and structure determination of obyanamide, a novel cytotoxic cyclic depsipeptide from the marine cyanobacterium Lyngbya confervoides” (J Nat Prod, 2002).

One may read the IC50 as the point on the concentration scale where inhibition reaches its midpoint.

`CC[C@H]1CC(=O)O[C@@H](C)C(=O)N(C)[C@@H](C(C)C)C(=O)N(C)[C@@H](Cc2ccccc2)C(=O)N[C@@H](C)c2nc(cs2)C(=O)N1` [OBYANAMIDE]: the IC50 with LoVo came out at 3.14 µg/mL (≈ 5.24 µM); in the test with KB, 0.58 µg/mL (≈ 0.967 µM).
